Measurements taken from the NIST ThermoML archive (doi:10.1007/s10765-008-0506-x).

Tests used:
[1] = xn = mol fraction of the nth substance listed; conditions: Liquid, Hot wire method
[2] = 294.2 K, Liquid, Hot wire method

CCCCn1cc[n+](C)c1.F[P-](F)(F)(F)(F)F [1-butyl-3-methylimidazolium hexafluorophosphate] + O=C=O
thermal conductivity [W/m/K], [1]
Conditions | x2 = 0.108 | x2 = 0.22 | x2 = 0.328 | x2 = 0.42
294.4 K, 10000 kPa | 0.148 | 0.149 | 0.15 | 0.148
294.4 K, 20000 kPa | 0.15 | 0.151 | 0.152 | 0.149
314.5 K, 10000 kPa | 0.149 | 0.149 | 0.152 | 0.148
314.5 K, 20000 kPa | 0.151 | 0.152 | 0.153 | 0.148
334.2 K, 10000 kPa | 0.148 | 0.15 | 0.15 | 0.148
334.2 K, 20000 kPa | 0.151 | 0.152 | 0.151 | 0.149

CCCCn1cc[n+](C)c1.F[B-](F)(F)F [1-butyl-3-methylimidazolium tetrafluoroborate] + O=C=O
thermal conductivity [W/m/K], [1]
Conditions | 294.2 K | 314.3 K | 334.3 K
10000 kPa, x2 = 0.169 | 0.173 | 0.173 | 0.173
10000 kPa, x2 = 0.308 | 0.17 | 0.169 | 0.169
10000 kPa, x2 = 0.422 | 0.171 | 0.17 | 0.169
20000 kPa, x2 = 0.169 | 0.174 | 0.175 | 0.175
20000 kPa, x2 = 0.308 | 0.172 | 0.17 | 0.17
20000 kPa, x2 = 0.422 | 0.171 | 0.17 | 0.169

Cn1ccnc1 [1-methylimidazole]
[2]
Conditions | thermal conductivity [W/m/K]
10000 kPa | 0.194
20000 kPa | 0.196

Cn1ccnc1 [1-methylimidazole] + O=C=O
thermal conductivity [W/m/K], [1], 294.2 K
Conditions | x2 = 0 | x2 = 0.157 | x2 = 0.261 | x2 = 0.337 | x2 = 0.43
10000 kPa | 0.194 | 0.187 | 0.184 | 0.18 | 0.176
20000 kPa | 0.196 | 0.19 | 0.187 | 0.184 | 0.18
